Assay results: patent publication US9663473B2 (Actelion Pharmaceuticals Ltd, priority 2013, dated 2017)

The compounds below were run against T1, recombinant human ALX receptor (Homo sapiens, UniProt P25090) (assay: Intracellular calcium measurements (FLIPR), ALX receptor agonistic activity). Conditions: HEK293-hALXR-Gα16 cells, Fluo-4 calcium signal, normalized to WKYMVm 10 nM.
T1 construct: expressed in transfected cells; host or cells: HEK293 (HEK293-hALXR-Gα16)
T1 sequence (P25090 1-351): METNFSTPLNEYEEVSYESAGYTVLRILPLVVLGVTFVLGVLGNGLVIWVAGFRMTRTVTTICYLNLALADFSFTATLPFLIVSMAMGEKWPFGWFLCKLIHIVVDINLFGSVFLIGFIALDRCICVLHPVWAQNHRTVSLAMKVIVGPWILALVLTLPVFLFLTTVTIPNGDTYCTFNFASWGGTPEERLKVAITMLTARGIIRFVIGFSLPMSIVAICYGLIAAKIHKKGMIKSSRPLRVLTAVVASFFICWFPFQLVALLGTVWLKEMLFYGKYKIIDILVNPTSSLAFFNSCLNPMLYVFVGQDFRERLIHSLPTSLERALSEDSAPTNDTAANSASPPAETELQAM
Assay type: cell-based
Method in brief: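 Agonist-induced calcium flux was read by FLIPR (488/540 nm) as baseline-subtracted peak emission, expressed relative to WKYMVm at 10 nM final. Cells used: HEK293-hALXR-Gα16, dye-loaded 60 min at 37° C. with 1 μM Fluo-4 AM before compound dose-response addition.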

| Structure (SMILES) | EC50 |
| --- | --- |
| COc1ccc(C[C@@H](NC(=O)NC2CCN(C(C)C)CC2)c2nc3ccccc3[nH]2)cc1 [Example 101, (R)-1-(1-(1H-Benzo[d]imidazol-2-yl)-2-(4-methoxyphenyl)ethyl)-3-(1-isopropylpiperidin-4-yl)urea] | 113 nM |
| COc1ccc(C[C@@H](NC(=O)NC2CCN(Cc3ccccc3)C2)c2nc3ccccc3[nH]2)cc1 (stereo partly drawn) [Example 102, 1-((R)-1-(1H-Benzo[d]imidazol-2-yl)-2-(4-methoxyphenyl)ethyl)-3-(1-benzylpyrrolidin-3-yl)urea] | 376 nM |
| COc1ccc(C[C@@H](NC(=O)Nc2ccc(OC)cc2)c2nc3ccccc3[nH]2)cc1 [Example 104, (R)-1-(1-(1H-Benzo[d]imidazol-2-yl)-2-(4-methoxyphenyl)ethyl)-3-(4-methoxyphenyl)urea] | 257 nM |
| COc1ccc(C[C@@H](NC(=O)NC2CCN(CCc3ccccc3)CC2)c2nc3ccccc3[nH]2)cc1 [Example 105, (R)-1-(1-(1H-Benzo[d]imidazol-2-yl)-2-(4-methoxyphenyl)ethyl)-3-(1-phenethylpiperidin-4-yl)urea] | 14 nM |
| COc1ccc(CC(NC(=O)NC2CCC(CCO)CC2)c2nc3ccccc3[nH]2)cc1 (stereo not drawn) [Example 107, 1-(1-(1H-Benzo[d]imidazol-2-yl)-2-(4-methoxyphenyl)ethyl)-3-(4-(2-hydroxyethyl)cyclohexyl)urea] | 6 nM |
| COc1ccc(C[C@@H](NC(=O)NC2CCNCC2)c2nc3ccccc3[nH]2)cc1 [Example 108, (R)-1-(1-(1H-Benzo[d]imidazol-2-yl)-2-(4-methoxyphenyl)ethyl)-3-(piperidin-4-yl)urea] | 52 nM |
| COc1ccc(C[C@@H](NC(=O)NC2(C)COC2)c2nc3ccccc3[nH]2)cc1 [Example 109, (R)-1-(1-(1H-Benzo[d]imidazol-2-yl)-2-(4-methoxyphenyl)ethyl)-3-(3-methyloxetan-3-yl)urea] | 634 nM |
| COc1ccc(C[C@@H](NC(=O)NCCC(N)=O)c2nc3ccccc3[nH]2)cc1 [Example 110, (R)-3-(3-(1-(1H-Benzo[d]imidazol-2-yl)-2-(4-methoxyphenyl)ethyl)ureido)propanamide] | 746 nM |
| COc1ccc(C[C@@H](NC(=O)N(CCO)C2CCCCC2)c2nc3ccccc3[nH]2)cc1 [Example 111, (R)-3-(1-(1H-Benzo[d]imidazol-2-yl)-2-(4-methoxyphenyl)ethyl)-1-cyclohexyl-1-(2-hydroxyethyl)urea] | 142 nM |
| COc1ccc(C[C@@H](NC(=O)N[C@@H]2CCC[C@H]2O)c2nc3ccccc3[nH]2)cc1 [Example 113, 1-((R)-1-(1H-Benzo[d]imidazol-2-yl)-2-(4-methoxyphenyl)ethyl)-3-((1R,2R)-2-hydroxycyclopentyl)urea] | 20 nM |
| COc1ccc(C[C@@H](NC(=O)N[C@H]2CCC[C@H]2O)c2nc3ccccc3[nH]2)cc1 [Example 114, 1-((R)-1-(1H-Benzo[d]imidazol-2-yl)-2-(4-methoxyphenyl)ethyl)-3-((1S,2R)-2-hydroxycyclopentyl)urea] | 190 nM |
| COc1ccc(C[C@@H](NC(=O)N[C@@H]2CCN(C(=O)OC(C)(C)C)C2)c2nc3ccccc3[nH]2)cc1 [Example 118, (R)-tert-Butyl 3-(3-((R)-1-(1H-benzo[d]imidazol-2-yl)-2-(4-methoxyphenyl)ethyl)ureido)pyrrolidine-1-carboxylate] | 25 nM |
| O=C(N[C@H](Cc1ccc(Cl)cc1)c1nc2ccccc2[nH]1)N[C@H]1CC[C@H](O)CC1 [Example 123, 1-((R)-1-(1H-Benzo[d]imidazol-2-yl)-2-(4-chlorophenyl)ethyl)-3-(trans-4-hydroxycyclohexyl)urea] | 44 nM |
| COc1ccc(C[C@@H](NC(=O)N[C@H]2CC[C@H](O)CC2)c2nc3c(F)cccc3[nH]2)cc1 [Example 124, 1-((R)-1-(4-Fluoro-1H-benzo[d]imidazol-2-yl)-2-(4-methoxyphenyl)ethyl)-3-(trans-4-hydroxycyclohexyl)urea] | 174 nM |
| COc1ccc(C[C@@H](NC(=O)N[C@H]2CCNC2)c2nc3ccccc3[nH]2)cc1 [Example 126, 1-((R)-1-(1H-Benzo[d]imidazol-2-yl)-2-(4-methoxyphenyl)ethyl)-3-((S)-pyrrolidin-3-yl)urea] | 601 nM |
| COc1ccc(C[C@@H](NC(=O)N2CCC3CNCC32)c2nc3ccccc3[nH]2)cc1 (stereo partly drawn) [Example 127, N—((R)-1-(1H-Benzo[d]imidazol-2-yl)-2-(4-methoxyphenyl)ethyl)hexahydropyrrolo[3,4-b]pyrrole-1(2H)-carboxamide] | 246 nM |
| COc1ccc(C[C@@H](NC(=O)N2CCC3NCCC32)c2nc3ccccc3[nH]2)cc1 (stereo partly drawn) [Example 128, N—((R)-1-(1H-Benzo[d]imidazol-2-yl)-2-(4-methoxyphenyl)ethyl)hexahydropyrrolo[3,2-b]pyrrole-1(2H)-carboxamide] | 308 nM |
| COc1ccc(C[C@@H](NC(=O)N2CC3CC2CN3)c2nc3ccccc3[nH]2)cc1 (stereo partly drawn) [Example 129, N—((R)-1-(1H-Benzo[d]imidazol-2-yl)-2-(4-methoxyphenyl)ethyl)-2,5-diazabicyclo[2.2.1]heptane-2-carboxamide] | 279 nM |
| COc1ccc(C[C@@H](NC(=O)N[C@@H]2CCCNC2)c2nc3ccccc3[nH]2)cc1 [Example 131, 1-((R)-1-(1H-Benzo[d]imidazol-2-yl)-2-(4-methoxyphenyl)ethyl)-3-((R)-piperidin-3-yl)urea] | 15 nM |

Continued, values first:

| EC50 | Structure (SMILES) |
| --- | --- |
| 109 nM | COc1ccc(C[C@@H](NC(=O)N2CC3CCC2CN3C(=O)OC(C)(C)C)c2nc3ccccc3[nH]2)cc1 (stereo partly drawn) [Example 112, tert-Butyl 5-(((R)-1-(1H-benzo[d]imidazol-2-yl)-2-(4-methoxyphenyl)ethyl)carbamoyl)-2,5-diazabicyclo[2.2.2]octane-2-carboxylate] |
| 143 nM | COc1ccc(C[C@@H](NC(=O)N[C@H]2CCC[C@@H]2O)c2nc3ccccc3[nH]2)cc1 [Example 115, 1-((R)-1-(1H-Benzo[d]imidazol-2-yl)-2-(4-methoxyphenyl)ethyl)-3-((1S,2S)-2-hydroxycyclopentyl)urea] |
| 63 nM | COc1ccc(C[C@@H](NC(=O)NC2CC(C)(C)N(C)C(C)(C)C2)c2nc3ccccc3[nH]2)cc1 [Example 116, (R)-1-(1-(1H-Benzo[d]imidazol-2-yl)-2-(4-methoxyphenyl)ethyl)-3-(1,2,2,6,6-pentamethylpiperidin-4-yl)urea] |
| 62 nM | COc1ccc(C[C@@H](NC(=O)NC2CCCN(C)C2)c2nc3ccccc3[nH]2)cc1 (stereo partly drawn) [Example 117, 1-((R)-1-(1H-Benzo[d]imidazol-2-yl)-2-(4-methoxyphenyl)ethyl)-3-(1-methylpiperidin-3-yl)urea] |
| 539 nM | COc1ccc(C[C@@H](NC(=O)N[C@H]2CCN(C(=O)OC(C)(C)C)C2)c2nc3ccccc3[nH]2)cc1 [Example 119, (S)-tert-Butyl 3-(3-((R)-1-(1H-benzo[d]imidazol-2-yl)-2-(4-methoxyphenyl)ethyl)ureido)pyrrolidine-1-carboxylate] |
| 57 nM | COc1ccc(C[C@@H](NC(=O)N2CCC3CN(C(=O)OC(C)(C)C)CC32)c2nc3ccccc3[nH]2)cc1 (stereo partly drawn) [Example 120, tert-Butyl 1-(((R)-1-(1H-benzo[d]imidazol-2-yl)-2-(4-methoxyphenyl)ethyl)carbamoyl)hexahydropyrrolo[3,4-b]pyrrole-5(1H)-carboxylate] |
| 704 nM | COc1ccc(C[C@@H](NC(=O)N2CCC3C2CCN3C(=O)OC(C)(C)C)c2nc3ccccc3[nH]2)cc1 (stereo partly drawn) [Example 121, tert-Butyl 4-(((R)-1-(1H-benzo[d]imidazol-2-yl)-2-(4-methoxyphenyl)ethyl)carbamoyl)hexahydropyrrolo[3,2-b]pyrrole-1 (2H)-carboxylate] |
| 59 nM | COc1ccc(C[C@@H](NC(=O)N2CC3CCC2CN3)c2nc3ccccc3[nH]2)cc1 (stereo partly drawn) [Example 122, N—((R)-1-(1H-Benzo[d]imidazol-2-yl)-2-(4-methoxyphenyl)ethyl)-2,5-diazabicyclo[2.2.2]octane-2-carboxamide] |
| 82 nM | COc1ccc(C[C@@H](NC(=O)N[C@@H]2CCNC2)c2nc3ccccc3[nH]2)cc1 [Example 125, 1-((R)-1-(1H-Benzo[d]imidazol-2-yl)-2-(4-methoxyphenyl)ethyl)-3-((R)-pyrrolidin-3-yl)urea] |
| 1060 nM | COc1ccc(C[C@@H](NC(=O)N2CCN(C(=O)OC(C)(C)C)CC2)c2nc3ccccc3[nH]2)cc1 [Example 130, (R)-tert-Butyl 4-((1-(1H-benzo[d]imidazol-2-yl)-2-(4-methoxyphenyl)ethyl)carbamoyl)piperazine-1-carboxylate] |
| 23 nM | COc1ccc(C[C@@H](NC(=O)N[C@H]2CCCNC2)c2nc3ccccc3[nH]2)cc1 [Example 132, 1-((R)-1-(1H-Benzo[d]imidazol-2-yl)-2-(4-methoxyphenyl)ethyl)-3-((S)-piperidin-3-yl)urea] |
| 3.4 nM | O=C(N[C@H](Cc1ccc(Br)cc1)c1nc2ccc(F)cc2[nH]1)N[C@H]1CC[C@H](O)CC1 [Example 133, 1-((R)-2-(4-Bromophenyl)-1-(6-fluoro-1H-benzo[d]imidazol-2-yl)ethyl)-3-(trans-4-hydroxycyclohexyl)urea] |
| 387 nM | COc1ccc(C[C@@H](NC(=O)N2CCN(C)CC2)c2nc3ccccc3[nH]2)cc1 [Example 136, (R)—N-(1-(1H-Benzo[d]imidazol-2-yl)-2-(4-methoxyphenyl)ethyl)-4-methylpiperazine-1-carboxamide] |
| 726 nM | COc1ccc(C[C@@H](NC(=O)NCc2ccccc2OC)c2nc3ccccc3[nH]2)cc1 [Example 137] |
